What all share (format): cell-based
One assay concerns MCF-7. As to the kind of experiment: MTT cell viability assay, MCF-7. To be noted: Homo sapiens, read-out: IC50/μM MCF-7. As to the method: (§1) Cells were then treated with compound at various concentrations in 0.2 mL media. After the 72-hour incubation period, cells were washed in PBS (3×100 μL), and 10 μL MTT reagent was added with 100 μL fresh media. Cells were then incubated for 4 hr in a humidified chamber at 37° C. with 5% CO2. Insoluble formazan crystals were solubilized by addition of 0.1 mL detergent solution (4 hr at room temp., dark). Resulting colored solutions were then quantified at an absorbance of 570 nm.
Background: Formazan colour is commonly taken as a measure of viable cells.

For the next assay, the system named is MDA-MB-231. Kind of assay: MTT cell viability assay, MDA-MB-231. To be noted: Homo sapiens. The method, then:
as §1

The next assay relates to MEF (C57BL/6). As to the kind of experiment: MTT cell viability assay, MEF (C57BL/6). To be noted: Mus musculus. As to the method: as §1
Setting [1] is: MTT, 72-hour incubation, read-out: IC50/μM MEF (C57BL/6).
Where [2] appears, read: MDA-MB-231, 72 h, 72-hour incubation.
Where [3] appears, read: 72 h, read-out: IC50/μM MEF (C57BL/6), MTT, 72-hour incubation.
Where [4] appears, read: MCF7, 72 h, MTT, 72-hour incubation.

Read-outs that look alike come from different tables or passages of the source. Some results are limits rather than exact numbers.

As for `CCn1c(=O)/c(=C2\Sc3cc(Cl)ccc3N2C)s/c1=C\c1scc[n+]1[C@@H](C)c1ccccc1` [JG-335], the IC50 worked out at 0.14 ± 0.02 µM in the assay on MCF-7 (MCF7, MTT, 72-hour incubation); 0.11 ± 0.01 µM with MDA-MB-231 (MDA-MB-231, 72-hour incubation); 1.4 ± 0.1 µM in the assay with MEF (C57BL/6) (setting [1]).
The matching figures for `CCn1c(=O)/c(=C2\Sc3cc(SC)ccc3N2C)s/c1=C\c1scc[n+]1Cc1ccsc1C(=O)OC` [JG-313]: 0.2 ± 0.01 µM, 0.16 ± 0.02 µM and 1.4 ± 0.1 µM.
The matching figures for `CCn1c(=O)/c(=C2\Sc3cc(C(C)C)ccc3N2C)s/c1=C\c1scc[n+]1Cc1ccsc1C(=O)OC` [JG-327]: 0.15 ± 0.02 µM, 0.17 ± 0.02 µM and 0.7 ± 0.03 µM.
The matching figures for `CCn1c(=O)/c(=C2\Sc3cc(F)ccc3N2C)s/c1=C\c1scc[n+]1Cc1cnc(Cl)s1` [JG-260]: greater than 5 µM, 6.7 ± 0.5 µM and 8.2 ± 0.4 µM.
Regarding `CCn1c(=O)/c(=C2\Sc3cc(F)ccc3N2C)s/c1=C\c1scc[n+]1Cc1ccccc1CO` [JG-330], the IC50 is 1.08 ± 0.14 µM with MCF-7 (MCF7, MTT, 72-hour incubation); 1.93 ± 0.27 µM in the assay with MDA-MB-231 (MDA-MB-231, 72-hour incubation); greater than 10 µM in the assay on MEF (C57BL/6) (setting [1]).
As for `CCn1c(=O)/c(=C2\Sc3cc(Cl)ccc3N2C)s/c1=C\c1scc[n+]1Cc1ccccc1OC` [JG-263], the IC50 is 0.4 ± 0.03 µM in the assay with MCF-7 (MCF7, 72 h); 0.12 ± 0.01 µM in the assay with MDA-MB-231 (setting [2]); 1.5 ± 0.1 µM in the assay with MEF (C57BL/6) (setting [3]).
Regarding `CCn1c(=O)/c(=C2\Sc3cc(OC)ccc3N2C)s/c1=C\c1scc[n+]1CCc1ccc(C(F)(F)F)cc1` [JG-395], the IC50 with MCF-7 (MCF7, MTT, 72-hour incubation) came out at 0.51 ± 0.06 µM; in the assay on MDA-MB-231 (MDA-MB-231, 72-hour incubation), 0.42 ± 0.03 µM; in the assay on MEF (C57BL/6) (setting [1]), 2.9 ± 0.1 µM.
In the case of `CCc1ccc2c(c1)S/C(=c1/s/c(=C\c3scc[n+]3Cc3ccccc3Cl)n(CC)c1=O)N2C` [JG-295], the IC50 came out at 0.084 ± 0.006 µM in the assay with MCF-7 (MCF7, MTT, 72-hour incubation); 0.093 ± 0.005 µM in the assay with MDA-MB-231 (MDA-MB-231, 72-hour incubation); 0.48 ± 0.01 µM in the assay with MEF (C57BL/6) (setting [1]).
For `CCn1c(=O)/c(=C2\Sc3cc(Cl)ccc3N2C)s/c1=C\c1scc[n+]1Cc1c(C)cccc1C` [JG-333], the IC50 in the assay with MCF-7 (MCF7, MTT, 72-hour incubation) turned out to be 0.35 ± 0.04 µM; in the assay with MDA-MB-231 (MDA-MB-231, 72-hour incubation), 0.19 ± 0.02 µM; in the assay with MEF (C57BL/6) (setting [1]), 1.1 ± 0.1 µM.
The matching figures for `CCn1c(=O)/c(=C2\Sc3cc(Cl)ccc3N2C)s/c1=C\c1scc[n+]1CCc1ccc(C(F)(F)F)cc1` [JG-387]: 0.78 ± 0.09 µM, 0.74 ± 0.04 µM and greater than 10 µM.
With `CCn1c(=O)/c(=C2\Sc3cc(Cl)ccc3N2C)s/c1=C\c1scc[n+]1Cc1ccccc1C(=O)O` [JG-316], the IC50 was greater than 20 µM in the assay on MCF-7 (MCF7, MTT, 72-hour incubation); greater than 20 µM with MDA-MB-231 (MDA-MB-231, 72-hour incubation); greater than 10 µM in the assay with MEF (C57BL/6) (setting [1]).
Regarding `CCn1c(=O)/c(=C2\Sc3ccc(OC)cc3N2C)s/c1=C\c1scc[n+]1Cc1ccsc1C(=O)OC` [JG-402], the IC50 with MCF-7 (MCF7, MTT, 72-hour incubation) stood at 0.45 ± 0.04 µM; in the assay on MDA-MB-231 (MDA-MB-231, 72-hour incubation) it was 0.23 ± 0.01 µM; in the assay with MEF (C57BL/6) (setting [1]), 0.82 ± 0.06 µM.
On to `CCn1c(=O)/c(=C2\Sc3cc(Cl)ccc3N2C)s/c1=C\c1scc[n+]1Cc1cccc(Cl)c1` [JG-271], for which the IC50 in the assay with MCF-7 (setting [4]) is 0.26 ± 0.02 µM; in the assay with MDA-MB-231 (setting [2]) it was 0.51 ± 0.06 µM; with MEF (C57BL/6) (setting [3]), 0.69 ± 0.03 µM.
With `CCn1c(=O)/c(=C2\Sc3cc(F)ccc3N2C)s/c1=C\c1scc[n+]1Cc1ccccc1C(=O)O` [JG-315], the IC50 with MCF-7 (MCF7, MTT, 72-hour incubation) was greater than 20 µM; in the assay on MDA-MB-231 (MDA-MB-231, 72-hour incubation), greater than 20 µM; in the assay on MEF (C57BL/6) (setting [1]) it was greater than 10 µM.
Take `CCn1c(=O)/c(=C2\Sc3cc(OC)ccc3N2C)s/c1=C\c1scc[n+]1Cc1ccccc1SC(F)(F)F` [JG-350]: the IC50 in the assay with MCF-7 (MCF7, MTT, 72-hour incubation) was 0.059 ± 0.007 µM; with MDA-MB-231 (MDA-MB-231, 72-hour incubation) it was 0.1 ± 0.01 µM; with MEF (C57BL/6) (setting [1]), 1.2 ± 0.1 µM.
As to `CCn1c(=O)/c(=C2\Sc3cc(Cl)ccc3N2C)s/c1=C\c1scc[n+]1Cc1ccccc1C(=O)OC` [JG-331], the values for the IC50 in the assay with MCF-7 (setting [4]), in the assay with MDA-MB-231 (setting [2]) and in the assay with MEF (C57BL/6) (setting [3]) were 0.17 ± 0.02 µM, 0.17 ± 0.02 µM and 2.9 ± 0.1 µM, respectively.
For the compound `CCn1c(=O)/c(=C2\Sc3cc(OC)ccc3N2C)s/c1=C\c1scc[n+]1CCc1cccc(C(F)(F)F)c1` [JG-393], the IC50 in the assay on MCF-7 (MCF7, MTT, 72-hour incubation) was 0.68 ± 0.13 µM; with MDA-MB-231 (MDA-MB-231, 72-hour incubation), 0.21 ± 0.01 µM; with MEF (C57BL/6) (setting [1]), 2.1 ± 0.1 µM.
Regarding `CCn1c(=O)/c(=C2\Sc3cc(OC)ccc3N2C)s/c1=C\c1scc[n+]1C(C)c1ccccc1` (stereo not drawn) [JG-322], the IC50 turned out to be 0.14 ± 0.01 µM in the assay on MCF-7 (MCF7, MTT, 72-hour incubation); 0.15 ± 0.01 µM in the assay on MDA-MB-231 (MDA-MB-231, 72-hour incubation); 1.7 ± 0.1 µM with MEF (C57BL/6) (setting [1]).
Regarding `CCn1c(=O)/c(=C2\Sc3cc(C)ccc3N2C)s/c1=C\c1scc[n+]1CCc1ccc(C(F)(F)F)cc1` [JG-388], the IC50 stood at 0.5 ± 0.04 µM with MCF-7 (MCF7, MTT, 72-hour incubation); 0.62 ± 0.07 µM with MDA-MB-231 (MDA-MB-231, 72-hour incubation); 1.6 ± 0.1 µM in the assay on MEF (C57BL/6) (setting [1]).
Take `CCn1c(=O)/c(=C2\Sc3cc(C)ccc3N2C)s/c1=C\c1scc[n+]1Cc1ccccc1Cl` [JG-283]: the IC50 with MCF-7 (MCF7, MTT, 72-hour incubation) is 0.063 ± 0.007 µM; in the assay on MDA-MB-231 (MDA-MB-231, 72-hour incubation), 0.088 ± 0.005 µM; in the assay on MEF (C57BL/6) (setting [1]), 0.45 ± 0.02 µM.
The matching figures for `CCn1c(=O)/c(=C2\Sc3cc(C)ccc3N2C)s/c1=C\c1scc[n+]1CCc1ccccc1C` [JG-392]: 0.35 ± 0.03 µM, 0.19 ± 0.02 µM and 1.2 ± 0.1 µM.

For the origin of these results see patent US10221171B2, “Oxathiazole thiazolium Hsp 70 inhibitors” (THE REGENTS OF THE UNIVERSITY OF CALIFORNIA, priority 2015, dated 2019).
